Reference: patent US20240010620A1, “ARYLAZABICYCLO[2.1.1]HEXYLMETHANOLS DERIVATIVES AND MEDICAL USES THEREOF” (ATROGI AB, priority 2020, published 2024)

What was measured:
Format in all cases: cell-based
L6-myotubes [1] = assay: Measurement of intracellular cAMP levels (alpha screen cAMP kit); settings: differentiated cells; agonist final concentration 1×10^−5, 15 min; 1 mM IBMX
Method: L6-myoblasts were grown in Dulbecco's Modified Eagle's Medium (DMEM) containing 4,5 g/I glucose supplemented with 10% fetal bovine serum, 2 mM L-Glutamine, 50 U/ml penicillin, 50 μg/ml streptomycin and 10 mM HEPES. Cells were plated at 1×10^5 cells per ml in 24-well plates. After reaching 90% confluence the cells were grown in medium containing 2% FBS for 7 days where upon cells differentiated into myotubes. Differentiated cells were serum-starved over night and stimulated with agonist, final concentration 1×10^−5, for 15 min in stimulation buffer (HBSS supplemented with 1% BSA, 5 mM HEPES and 1 mM IBMX, pH 7.4) The medium was then aspirated and to end the reaction 100 μL of 95% EtOH was added to each well of a 24-well plate and cells were kept in −20° C. over night. The EtOH was let to evaporate and 500 μL of lysis buffer (1% BSA, 5 mM HEPES and 0.3% Tween-20, pH 7.4) was added to each well before put in −80° C. for 30 min and then kept in −20° C. Intracellular cAMP levels were detected using an alpha screen cAMP kit (6760635D from Perkin Elmer). The activity for each compound is compared to that of isoproterenol.

L6-myotubes [2] = assay: Glucose uptake in differentiated L6-myotubes (3H-2-deoxy-glucose); settings: agonist final concentration 1×10^−5, 3H-2-deoxy-glucose uptake
Method: L6-myoblasts were grown in Dulbecco's Modified Eagle's Medium (DMEM) containing 4,5 g/I glucose supplemented with 10% fetal bovine serum, 2 mM L-Glutamine, 50 U/ml penicillin, 50 μg/ml streptomycin and 10 mM HEPES. Cells were plated at 1×10^5 cells per ml in 24-well plates. After reaching 90% confluence the cells were grown in medium containing 2% FBS for 7 days where upon cells differentiated into myotubes. Differentiated L6-myotubes were serum-starved over night in medium containing 0.5% fatty-acid free BSA and stimulated with agonist, final concentration 1×10^−5. After 1 h 40 min cells were washed with warm, glucose free medium or PBS and another portion of agonist was added to glucose free medium. After 20 min the cells were exposed to 50 nM ^3H-2-deoxy-glucose for another 10 min before washed in ice cold glucose free medium or PBS and lysed in 0.2 M NaOH for 1 h in 60° C.

L6-myotubes [3] = assay: Glucose uptake in the presence of the β2-adrenergic receptor antagonist ICI-118,551; settings: differentiated L6-myotubes; compound 1×10^−5 M; ICI-118,551 1×10^−5 M
Method: L6-myoblasts were grown in Dulbecco's Modified Eagle's Medium (DMEM) containing 4,5 g/I glucose supplemented with 10% fetal bovine serum, 2 mM L-Glutamine, 50 U/ml penicillin, 50 μg/ml streptomycin and 10 mM HEPES. Cells were plated at 1×10^5 cells per ml in 24-well plates. After reaching 90% confluence the cells were grown in medium containing 2% FBS for 7 days where upon cells differentiated into myotubes. Differentiated L6-myotubes were serum-starved overnight in medium containing 0.5% fatty-acid free BSA and were incubated with the β2-adrenergic receptor antagonist ICI-118,551 at a final concentration of 1×10^−5 M for 30 min. The cells were stimulated with a compound of the invention, at a final concentration of 1×10^−5 M. After 1 h 40 min the cells were washed twice with warm, glucose free medium or PBS and additional portions of the compound of the invention and the antagonist were added. After 20 min the cells were exposed to 50 nM ^3H-2-deoxyglucose for 10 min before washed with ice cold glucose free medium or PBS three times and lysed with 0.2 M NaOH, 400 μL/well, for 1 h at 60° C. The cell lysate was mixed with 4 mL scintillation buffer (Emulsifier Safe, Perkin Elmer) and the radioactivity was detected in a β-counter (Tri-Carb 4810TR, Perkin Elmer). The activity for each compound is compared to that of isoproterenol.

CC12CC(C1)[C@H]([C@@H](O)c1ccccc1F)N2.Cl [Example 11]
Biological example 2: intracellular cAMP levels, activity compared to that of isoproterenol (L6-myotubes [1]): − (less than 25%)
Biological example 1: glucose uptake, activity compared to that of isoproterenol (L6-myotubes [2]): +++ (activity of more than 75% of that of isoproterenol)
Biological example 3: glucose uptake in the presence of ICI-118,551, activity compared to that of isoproterenol (L6-myotubes [3]): − (less than 25%)
